{"source": "patent US20240016773A1", "about": "“COMPOSITIONS AND METHODS FOR DIAGNOSIS AND TREATMENT OF CONDITIONS RELATED TO AGING” (EPITRACKER, INC., priority 2018, published 2024)", "key": {"[1]": {"tested_on": "HDF3CGF system: dermal fibroblasts (IFNγ, TNFα, IL-1β, EGF, bFGF, PDGF-BB)", "experiment": "BioMAP Diversity PLUS, HDF3CGF system", "type": "cell-based, human", "details": "HD3CGF (so in the source)", "source_text": "(§1) The Diversity PLUS panel allows test agent characterization in an unbiased way across a broad set of systems modeling various human disease states. These systems are designed to model complex human tissue and disease biology of the vasculature, skin, lung, and inflammatory tissues. Quantitative measurements of 148 biomarker activities across this broad panel, along with comparative analysis of biological activities from known bioactive agents, were used to predict and compare the efficacy and function of each selected compound at four concentrations (740 nm and 2.2, 6.7 and 20 μM).\n(§2) BioMAP systems are constructed with one or more primary cell types from healthy human donors, with stimuli (such as cytokines or growth factors) added to capture relevant signaling networks that naturally occur in human tissue or pathological conditions. Vascular biology is modeled in both a Th1 (3C system) and a Th2 (4H system) inflammatory environment, as well as in a Th1 inflammatory state specific to arterial smooth muscle cells (CASM3C system). Additional systems recapitulate aspects of the systemic immune response including monocyte-driven Th1 inflammation (LPS system) or T cell stimulation (SAg system), chronic Th1 inflammation driven by macrophage activation (lMphg system) and the T cell-dependent activation of B cells that occurs in germinal centers (BT system). The BE3C system (Th1) and the BF4T system (Th2) represent airway inflammation of the lung, while the MyoF system models myofibroblast-lung tissue remodeling. Lastly, skin biology is addressed in the KF3CT system modeling Th1 cutaneous inflammation and the HDF3CGF system modeling wound healing.\n(§3) Each test agent generates a signature BioMAP profile that is created from the changes in protein biomarker readouts within individual system environments. Biomarker readouts (7-17 per system) are selected for therapeutic and biological relevance, are predictive for disease outcomes or specific drug effects and are validated using agents with known mechanism of action (MoA). Each readout is measured quantitatively by immune-based methods that detect protein (e.g., ELISA) or functional assays that measure proliferation and viability. BioMAP readouts are diverse and include cell surface receptors, cytokines, chemokines, matrix molecules and enzymes. In total, the Diversity PLUS panel contains 148 biomarker readouts that capture biological changes that occur within the physiological context of the particular BioMAP system. Specific BioMAP activities have been correlated to in vivo biology, and multiparameter BioMAP profiles have been used to distinguish compounds based on MoA and target selectivity across diverse physiological systems.\n(§4) Activated BioMAP systems were incubated with each compound for 24 to 72 hours. Protein-based biomarkers from activated cell systems were measured and compared with non-treated control systems."}, "[2]": {"tested_on": "SAg system: venular endothelial cells, peripheral blood mononuclear cells (TCR ligands)", "experiment": "BioMAP Diversity PLUS, SAg system", "type": "cell-based, human", "source_text": "as §1, §2, §3, §4"}, "[3]": {"tested_on": "twelve different human primary cell systems mimicking various disease states", "experiment": "BioMAP Diversity PLUS panel, twelve human primary cell systems (summary by disease)", "type": "cell-based", "design": "key: x: Significantly reduced cell-based biomarkers relevant to specific diseases and conditions", "source_text": "As a proof of concept, 14 compounds were selected from our compound library based on predicted efficacy in lowering inflammation in dolphins. Pure synthetic forms of these compounds were screened for cell-based activities (relevant to multiple aging-associated diseases and diseases that may impact longevity) using twelve different human primary cell systems mimicking various disease states (TABLE 4—description of primary human cell systems used to screen selected compounds in library).\nas §1, §2, §3, §4"}, "[4]": {"tested_on": "Primary endothelial cells stimulated with IL-1β, TNF-α, and IFNγ", "experiment": "Second cell-based system: Th1 inflammatory and prothrombotic environment", "design": "species or system human", "experimental": "(§5) This study examined the impact of synthetic pentadecanoic acid (C15:0) at four concentrations (740 nm and 2.2, 6.7, and 20 μM) on three primary human cell-based activity systems that were exposed to agents that mimicked allergic, thrombotic, and fibrotic disease states. In general, protein-based biomarkers in these systems were measured and compared with controls. Pentadecanoic acid was considered ‘active’ when 2 or more consecutive concentrations changed a given biomarker in the same direction relative to vehicle controls, were outside of the significance envelope of internal controls, and had at least one concentration with an effect size greater than 20% (log 10 ratio >0.1).\nThe second cell-based system recapitulated a Th1 inflammatory and prothrombotic environment. Primary endothelial cells were stimulated with IL-1β, TNF-α, and IFNγ and incubated with pentadecanoic acid for 24 hours. In addition to controls that were not treated with pentadecanoic acid, a negative, non-stimulated system was also included. Urokinase plasminogen activator receptor (uPAR) activation in this system was measured and compared with controls."}, "[5]": {"tested_on": "BT system: peripheral blood mononuclear cells, B cells (α-IgM, TCR ligands)", "experiment": "BioMAP Diversity PLUS, BT system", "type": "cell-based, human", "source_text": "as §1, §2, §3, §4"}, "[6]": {"tested_on": "Primary dermal fibroblasts stimulated with IL-1β, TNFα, IFNγ, EGF, bFGF, and PDGF-BB", "experiment": "Third cell-based system: fibrosis and cell proliferation", "design": "species or system human", "experimental": "as §5\nThe third cell-based system recapitulated fibrosis and cell proliferation. Primary dermal fibroblasts were stimulated with IL-1β, TNFα, IFNγ, EGF, bFGF, and PDGF-BB and incubated with pentadecanoic acid for 24 hours. In addition to controls that were not treated with pentadecanoic acid, a negative, non-stimulated system was also included. Plasminogen activator inhibitor-1 (PAI-1), Collagen-I and fibroblast proliferation (at 72 hours) in this system were measured and compared with controls."}, "[7]": {"details": "24 hours incubation, 6.7 μM and 20 μM bioactive, vs controls"}, "[8]": {"details": "all four concentrations (740 nm and 2.2, 6.7, and 20 μM)"}}, "data": [{"smiles": "CCCCCCCCCCCCCCC(=O)O", "note": "[Pentadecanoic acid, pentadecanoic acid]", "values": [{"measurement": "Significant log10 reduction vs nontreated controls: 72-hour fibroblast proliferation", "setting": "[1]; 6.7 μM", "value": "−0.67", "unit": "log10"}, {"measurement": "Significant log10 reduction vs nontreated controls: Collagen I", "setting": "[1]; 6.7 μM", "value": "−0.07", "unit": "log10"}, {"measurement": "Significant log10 reduction vs nontreated controls: Plasminogen activation inhibitor 1 (PAI-1)", "setting": "[1]; 6.7 μM", "value": "−0.08", "unit": "log10"}, {"measurement": "Significant log10 reduction vs nontreated controls: 72-hour fibroblast proliferation", "setting": "[1]; 20.0 μM", "value": "−1.1", "unit": "log10"}, {"measurement": "Significant log10 reduction vs nontreated controls: Collagen I", "setting": "[1]; 20.0 μM", "value": "−0.13", "unit": "log10"}, {"measurement": "Significant log10 reduction vs nontreated controls: Collagen III", "setting": "[1]; 20.0 μM", "value": "−0.13", "unit": "log10"}, {"measurement": "Significant log10 reduction vs nontreated controls: Interferon gamma-induced protein 10 (IP-10)/CXCL10", "setting": "[1]; 20.0 μM", "value": "−0.14", "unit": "log10"}, {"measurement": "Significant log10 reduction vs nontreated controls: Interferon-inductible T cell alpha chemoattractant (I-TAC)/CXCL11", "setting": "[1]; 20.0 μM", "value": "−0.17", "unit": "log10"}, {"measurement": "Significant log10 reduction vs nontreated controls: Monokine induced by gamma interferon (MIG)/CXCL9", "setting": "[1]; 20.0 μM", "value": "−0.10", "unit": "log10"}, {"measurement": "Significant log10 reduction vs nontreated controls: Plasminogen activation inhibitor 1 (PAI-1)", "setting": "[1]; 20.0 μM", "value": "−0.13", "unit": "log10"}, {"measurement": "Significant log10 reduction vs nontreated controls: Vascular cell adhesion molecule 1 (VCAM-1)", "setting": "[1]; 20.0 μM", "value": "−0.28", "unit": "log10"}, {"measurement": "Significant log10 reduction vs nontreated controls: Monocyte chemoattractant protein 1 (MCP-1)", "setting": "[2]; 6.7 μM", "value": "−0.18", "unit": "log10"}, {"measurement": "Significant log10 reduction vs nontreated controls: Monocyte chemoattractant protein 1 (MCP-1)", "setting": "[2]; 20.0 μM", "value": "−0.15", "unit": "log10"}, {"measurement": "Significantly reduced cell-based biomarkers relevant to: Allergy", "setting": "[3]; Table 6", "value": "x"}, {"measurement": "Significantly reduced cell-based biomarkers relevant to: Asthma", "setting": "[3]; Table 6", "value": "x"}, {"measurement": "Significantly reduced cell-based biomarkers relevant to: Autoimmunity", "setting": "[3]; Table 6", "value": "x"}, {"measurement": "Significantly reduced cell-based biomarkers relevant to: Hematological oncology", "setting": "[3]; Table 6", "value": "x"}, {"measurement": "Significantly reduced cell-based biomarkers relevant to: SLE", "setting": "[3]; Table 6", "value": "x"}, {"measurement": "Significantly reduced cell-based biomarkers relevant to: T-cell dependent B cell proliferation", "setting": "[3]; Table 6", "value": "x"}, {"measurement": "Significantly reduced cell-based biomarkers relevant to: Chronic inflammation", "setting": "[3]; Table 7", "value": "x"}, {"measurement": "Significantly reduced cell-based biomarkers relevant to: Organ transplantation", "setting": "[3]; Table 7", "value": "x"}, {"measurement": "Significantly reduced cell-based biomarkers relevant to: Psoriasis", "setting": "[3]; Table 7", "value": "x"}, {"measurement": "Significantly reduced cell-based biomarkers relevant to: Rheumatoid arthritis", "setting": "[3]; Table 7", "value": "x"}, {"measurement": "Significantly reduced cell-based biomarkers relevant to: Thl type inflammation", "setting": "[3]; Table 7", "value": "x"}, {"measurement": "Significantly reduced cell-based biomarkers relevant to: Crohn's disease", "setting": "[3]; Table 8", "value": "x"}, {"measurement": "Significantly reduced cell-based biomarkers relevant to: Fibrosis", "setting": "[3]; Table 8", "value": "x"}, {"measurement": "Significantly reduced cell-based biomarkers relevant to: Hematological oncology", "setting": "[3]; Table 8", "value": "x"}, {"measurement": "Significantly reduced cell-based biomarkers relevant to: Stromal biology in tumors", "setting": "[3]; Table 8", "value": "x"}, {"measurement": "uPAR (FIG. 3)", "setting": "[4]; [7]", "value": "increases"}, {"measurement": "Cytotoxicity", "setting": "[4]; [8]", "value": "non-cytotoxic"}, {"measurement": "Significant log10 reduction vs nontreated controls: Secreted interleukin 17A (IL-17A)", "setting": "[5]; 2.2 μM", "value": "−0.25", "unit": "log10"}, {"measurement": "Significant log10 reduction vs nontreated controls: Secreted interleukin 17F (IL-17F)", "setting": "[5]; 2.2 μM", "value": "−0.16", "unit": "log10"}, {"measurement": "Significant log10 reduction vs nontreated controls: Secreted immunoglobulin G (IgG)", "setting": "[5]; 6.7 μM", "value": "−0.17", "unit": "log10"}, {"measurement": "Significant log10 reduction vs nontreated controls: Secreted immunoglobulin G (IgG)", "setting": "[5]; 20.0 μM", "value": "−0.55", "unit": "log10"}, {"measurement": "Significant log10 reduction vs nontreated controls: Secreted interleukin 6 (IL-6)", "setting": "[5]; 20.0 μM", "value": "−0.29", "unit": "log10"}, {"measurement": "Significant log10 reduction vs nontreated controls: Secreted interleukin 17A (IL-17A)", "setting": "[5]; 20.0 μM", "value": "−0.29", "unit": "log10"}, {"measurement": "Significant log10 reduction vs nontreated controls: Secreted interleukin 17F (IL-17F)", "setting": "[5]; 20.0 μM", "value": "−0.18", "unit": "log10"}, {"measurement": "Collagen-I (FIG. 4)", "setting": "[6]; [7]", "value": "decreases"}, {"measurement": "PAI-1 (FIG. 4)", "setting": "[6]; [7]", "value": "decreases"}, {"measurement": "72-hour fibroblast proliferation (FIG. 4)", "setting": "[6]; 72 hours, 6.7 μM and 20 μM bioactive, vs controls", "value": "decreases"}, {"measurement": "Cytotoxicity", "setting": "[6]; [8]", "value": "non-cytotoxic"}]}]}
